Reference: patent US7022311B1, “Powdery inhalational preparations and process for producing the same” (Kaken Pharmaceutical Co., Ltd., priority 1999, dated 2006)

Experiments:
[1] = In vitro lung delivery fraction test with multi-stage cascade impactor (Andersen sampler, Jethaler); assay type: physicochemical; details: 28.3 L/min; for Residual and Distributed Fractions of Active Ingredient: Capsule / Residual and Distributed Fractions of Active Ingredient: Inhaler device / Residual and Distributed Fractions of Active Ingredient: Stage 0 / Residual and Distributed Fractions of Active Ingredient: Stage 1 / Residual and Distributed Fractions of Active Ingredient: Stages 2–7 / Residual and Distributed Fractions of Active Ingredient: Throat / Capsule, residual active ingredient / Inhaler device, residual active ingredient / Stage 0, distribution of active ingredient / Stage 1, distribution of active ingredient / Stages 2–7, lung delivery fraction / Throat, distribution of active ingredient: S-36496 10%
Protocol: Capsulated preparations (The Japanese Pharmacopeia No. 2 HPMC capsules: manufactured by Shionogi Qualicaps Co., Ltd.) which were filled with about 40 mg each of three dry powder inhalations were prepared and mounted on an inhaler device (Jethaler; Unisia Jecs Corp.) The Jethaler was then attached to the mouthpiece of a cascade impactor (Andersen sampler Model AN-200) and inspired at a flow rate of 28.3 L/min., thereby dispersing the micronized medication in the capsule and measuring the residual active ingredient in the capsule and in the inhaler device as well as the distribution of the active ingredient at each stage with liquid chromatography. It was confirmed that in the in vitro test with cascade impactor, the lung delivery fraction at stages 2–7 corresponding to the respiring fraction differed substantially depending on the different carrier particles.
(§1) Capsulated preparations (The Japanese Pharmacopeia No. 2HPMC capsules: manufactured by Shionogi Qualicaps Co., Ltd.), which were filled with about 40 mg each of three dry powder inhalations, were prepared and mounted on an inhaler device (Jethaler®; Unisia Jecs Corp.). The Jethaler® brand device was then attached to the mouthpiece of a cascade impactor (Andersen sampler; Model AN-200) and inspired at a flow rate of 28.3 L/min., thereby dispersing the dry powder inhalation in the capsule and measuring the residual active ingredient in the capsule and in the inhaler device as well as the distribution of the active ingredient at each stage with liquid chromatography.
(§2) A capsulated preparation (The Japanese Pharmacopeia No. 2HPMC capsules: manufactured by Shionogi Qualicaps Co., Ltd.) which was filled with about 40 mg of the prepared dry powder inhalations was prepared and mounted on an inhaler device (Jethaler; Unisia Jecs Corp.) The Jethaler was then attached to the mouthpiece of a cascade impactor (Andersen sampler; Model AN-200) and inspired at a flow rate of 28.3 L/min., thereby dispersing the dry powder inhalation in the capsule and measuring the residual active ingredient in the capsule and in the inhaler device as well as the distribution of the active ingredient at each stage with liquid chromatography.
as §1, with “A capsulated preparation (The” for “Capsulated preparations (The”, “which was” for “which were”, “mg” for “mg each”, “chromatography. […]” for “chromatography.”
as §2, with “2 HPMC” for “2HPMC”, “Ltd.)” for “Ltd.) which was”, “inhalation” for “inhalations”

[2] = Dispersibility of active ingredient from carrier particles, laser diffraction particle size analyzer; assay type: physicochemical; details: Example 17: S-36496 10%, micronized lactose 1%, carrier trehalose 89%, particles of 10 μm or less
[3] = Example 10: S-36496 3.2%, carrier lactose 95.8%, micronized lactose 1.0%
[4] = Example 17: S-36496 10%, micronized lactose 1%, carrier trehalose 89%, Vertical Granulator 5 min
[5] = micronized lactose 1%, carrier trehalose 89% of particle size 48.6 μm
[6] = micronized lactose 1%, carrier trehalose 89% of particle size 81.0 μm
[7] = micronized lactose 1%, carrier trehalose 89% of particle size 97.9 μm
[8] = micronized lactose 1%, erythritol carrier 89% of mean particle diameter 53.8 μm
[9] = micronized lactose 1%, erythritol carrier 89% of mean particle diameter 81.6 μm
[10] = micronized lactose 1%, erythritol carrier 89% of mean particle diameter 155.9 μm

SMILES: CC(C)c1csc(COc2cccc(CN(CCCCNS(=O)(=O)c3ccc(Cl)cc3)S(=O)(=O)c3ccccc3C(=O)O)c2)n1 [Example S-36496, 2-{N-[4-(4-chlorobenzenesulfonylamino)butyl]-N-{3-[(4-isopropyl-2-thiazoyl)methoxy]benzyl}}sulfamoylbenzenolic acid]
- Residual and Distributed Fractions of Active Ingredient (%): Capsule [1, 3]: 8.2%
- Residual and Distributed Fractions of Active Ingredient (%): Inhaler device [1, 3]: 19.3%
- Residual and Distributed Fractions of Active Ingredient (%): Stage 0 [1, 3]: 19.5%
- Residual and Distributed Fractions of Active Ingredient (%): Stage 1 [1, 3]: 9.1%
- Residual and Distributed Fractions of Active Ingredient (%): Stages 2–7 [1, 3]: 18.2%
- Residual and Distributed Fractions of Active Ingredient (%): Throat [1, 3]: 25.7%
- Residual and Distributed Fractions of Active Ingredient (%): Capsule [1, 4]: 7.3%
- Residual and Distributed Fractions of Active Ingredient (%): Inhaler device [1, 4]: 19.4%
- Residual and Distributed Fractions of Active Ingredient (%): Stage 0 [1, 4]: 22.3%
- Residual and Distributed Fractions of Active Ingredient (%): Stage 1 [1, 4]: 5.8%
- Residual and Distributed Fractions of Active Ingredient (%): Stages 2–7 [1, 4]: 30.2%
- Residual and Distributed Fractions of Active Ingredient (%): Throat [1, 4]: 15.0%
- Residual and Distributed Fractions of Active Ingredient: Capsule [1, 5]: 9.0%
- Residual and Distributed Fractions of Active Ingredient: Inhaler device [1, 5]: 24.2%
- Residual and Distributed Fractions of Active Ingredient: Stage 0 [1, 5]: 24.7%
- Residual and Distributed Fractions of Active Ingredient: Stage 1 [1, 5]: 2.9%
- Residual and Distributed Fractions of Active Ingredient: Stages 2–7 [1, 5]: 6.4%
- Residual and Distributed Fractions of Active Ingredient: Throat [1, 5]: 32.8%
- Residual and Distributed Fractions of Active Ingredient: Capsule [1, 6]: 4.9%
- Residual and Distributed Fractions of Active Ingredient: Inhaler device [1, 6]: 19.1%
- Residual and Distributed Fractions of Active Ingredient: Stage 0 [1, 6]: 18.4%
- Residual and Distributed Fractions of Active Ingredient: Stage 1 [1, 6]: 2.0%
- Residual and Distributed Fractions of Active Ingredient: Stages 2–7 [1, 6]: 31.4%
- Residual and Distributed Fractions of Active Ingredient: Throat [1, 6]: 24.2%
- Residual and Distributed Fractions of Active Ingredient: Capsule [1, 7]: 5.8%
- Residual and Distributed Fractions of Active Ingredient: Inhaler device [1, 7]: 25.1%
- Residual and Distributed Fractions of Active Ingredient: Stage 0 [1, 7]: 18.2%
- Residual and Distributed Fractions of Active Ingredient: Stage 1 [1, 7]: 5.8%
- Residual and Distributed Fractions of Active Ingredient: Stages 2–7 [1, 7]: 17.9%
- Residual and Distributed Fractions of Active Ingredient: Throat [1, 7]: 27.2%
- Capsule, residual active ingredient [1, 8]: 3.0%
- Inhaler device, residual active ingredient [1, 8]: 18.2%
- Stage 0, distribution of active ingredient [1, 8]: 28.9%
- Stage 1, distribution of active ingredient [1, 8]: 3.5%
- Stages 2–7, lung delivery fraction [1, 8]: 24.4%
- Throat, distribution of active ingredient [1, 8]: 22.0%
- Capsule, residual active ingredient [1, 9]: 2.6%
- Inhaler device, residual active ingredient [1, 9]: 14.6%
- Stage 0, distribution of active ingredient [1, 9]: 21.8%
- Stage 1, distribution of active ingredient [1, 9]: 3.8%
- Stages 2–7, lung delivery fraction [1, 9]: 40.4%
- Throat, distribution of active ingredient [1, 9]: 16.9%
- Capsule, residual active ingredient [1, 10]: 2.5%
- Inhaler device, residual active ingredient [1, 10]: 2.9%
- Stage 0, distribution of active ingredient [1, 10]: 66.4%
- Stage 1, distribution of active ingredient [1, 10]: 15.2%
- Stages 2–7, lung delivery fraction [1, 10]: 11.3%
- Throat, distribution of active ingredient [1, 10]: 1.7%
- Dispersibility of drugs (active ingredient) (%) ([2]; Spray Pressure 0.2 kg/cm^2): 8.3%
- Dispersibility of drugs (active ingredient) (%) ([2]; Spray Pressure 0.3 kg/cm^2): 9.4%
